Consider one compound from patent US10624871B2, “Bismuth(III) compounds and methods thereof” (priority 2016, dated 2020).

Usually IC50 stands for the midpoint of a concentration-inhibition curve. A high value points to a need for much substance.

One assay has as its system E. coli cells (NDM+). Put plainly: Resistance study, mutation frequency and MPC. It counts as cell-based. An excerpt:
Given the very notion of MIC, all susceptible bacterial cells will be suppressed or killed by a dose above it. However, bacterial population is often large; an infection will likely contain first-step mutants with lowed susceptibility. Thus, the dose of compounds at MIC will adversely amplify the population of those less-susceptible mutants.^26 Thus mutant prevention concentration (MPC), defined as a compound concentration that suppresses the growth of first-step resistant mutant in large quantity of susceptible bacterial population, together with mutant prevention index (MPI=MPC/MIC), is introduced to estimate the mutant prevention ability of exemplary compound combination.
For a typical test, E. coli cells (NDM^+) at 1˜2×10^10 CFU were spread onto LB agar containing combinations of MER and CBS at identical concentrations. All the plates were incubated at 37° C. Upon incubation for 48 hrs, up to 4 colonies were picked and re-cultured from any plates with observable colonies, followed by the measurement of their MIC values. Any MICs of MER that were higher than the original values (16 μg mL^−1) were determined as mutant colony. The concentration that restricted the growth of mutant colonies was determined as MPC.

The target of assay [1] is T1, NDM-1 (Klebsiella pneumoniae, UniProt C7C422). Put plainly: Zn(II) supplementation assay. In kind it is biochemical. Particulars: Bi-NDM-1 from apo-NDM-1 and CBS; ZnSO4 up to 2 molar equivalents; apo-NDM-1 + 2 eq Zn = 1. Here is the method: To investigate whether enzyme inhibition can be reversed, enzyme activities of apo-NDM-1 and Bi-NDM-1 were compared with the supplementation of Zn(II). Bi-NDM-1 (50 nM) was prepared by pre-incubation of apo-NDM-1 with CBS for 2 h at 25° C. and the bound Bi was verified using ICP-MS. The above protein solutions were mixed with ZnSO4 at concentration up to 2 molar equivalents to NDM-1 and 100 μM MER. The change in absorbance at 300 nm was monitored in a 1 cm quartz cuvette using Varian Cary® 50 UV-visible spectrophotometer at 25° C. for reaction rate calculations. Reaction rate of apo-NDM-1 with addition of 2 molar equivalents of ZnSO4 was normalized to be 1. […]. […] To confirm this, the metal contents of both Zn(II) and Bi(III) were monitored by inductively-coupled plasma mass spectrometry (ICP-MS) as described below.

The subject of another assay is E. coli (VIM-2+). Put plainly: Microdilution MIC and MBC assay, FICI. In kind it is cell-based. Particulars: Bi(III) compound at 32 μg mL−1, E. coli (VIM-2+). (In broth dilution the organism is exposed to a series of concentrations in liquid medium.)
In assay [2] the test system is Rosetta (DE3) (NDM-1+) bacterial cells. Put plainly: Growth with other β-lactam antibiotics in presence of Bi(III) compounds. It counts as cell-based, E. coli. As to conditions: CEF 32 μg mL^−1; CBS 32 or Bi-NAC 16 μg mL^−1. As to the method: Note that evident restoration of activities of antibiotics was observed. The concentrations used in this test represent are: CBS […], Bi-NAC 16 μg mL^−1, all the antibiotics 32 μg mL^−1. Abbreviation: AMOX: amoxicillin; AMP: ampicillin; NAF: nafcillin; CEF: cefdinir.

A further assay has as its target VIM-2 (Escherichia coli, UniProt Q5U7L7). As to the kind of experiment: IC50 enzyme inhibition assay, MER hydrolysis. In kind it is biochemical. As to conditions: Zn2-VIM-2, 1 h preincubation at 25° C., 100 μM MER. An excerpt: (§1) […]. The initial rate were extracted and calculated from each reaction curves.
For assay [3], the target named is T1, NDM-1. Put plainly: IC50 enzyme inhibition assay, MER hydrolysis. It counts as biochemical. Particulars: Zn2-NDM-1 50 nM, 1 h preincubation at 25° C., 100 μM MER.
From the text: as §1

For a further assay, the system named is E. coli (NDM-1+). Put plainly: Murine peritonitis infection model. In kind it is in vivo, BALB/c mice. Particulars: MER (5 mg kg^−1) co-administered with CBS (20 mg kg^−1), i.p., day 4 post infection. As to the method: FIG. 15 is a survival curve showing efficacies in a murine peritonitis infection model. BALB/c mice were infected by a lethal dose of E. coli clinical isolate (NDM-1) via i.p. injection and treated with one dose and 4 h post infection, followed by twice-daily treatment via i.p. injection. Five groups of mice were treated with MER (5 mg kg^−1), CBS (20 mg kg^−1), the combination of MER (5 mg kg^−1) and CBS (20 mg kg^−1), CBS (20 mg kg^−1, in the absence of bacteria) and PBS, respectively. P<0.001, Mantel-Cox test.
Briefly, an overnight culture of E. coli (NDM-1^+) was performed 1:250 dilution in 50 mL LB broth and re-grew to about OD of 0.3 in a 250-mL flask after 2.5 hrs shaking at 37° C., 250 rpm. The resulting bacterial pellets were collected and washed by PBS three times for further use. For bacterial infection, mice (female BALB/c strain, 6-8 weeks of age, 18-22 g of weight) were induced intraperitoneally (i.p.) with a dose of 10^5 CFU bacteria in a 400 μL aliquot of PBS supplemented with 2% mucin. 4 groups of mice were i.p. administered 4 hrs post-infection with a 100 μL aliquot of PBS, MER, CBS and a combination of MER and CBS, respectively. Body weights and mice survival were monitored for endpoint until day 4 post infection.

Assay [4] deals with T1, NDM-1. As to the kind of experiment: Zn(II) displacement by Bi(III) using ICP-MS. It counts as binding. Particulars: Zn2-NDM-1 20 μM incubated with CBS, 25° C., 5 hrs. As to the method: To monitor the replacement of Zn(II) by Bi(III), inductively-coupled plasma mass spectrometry (ICP-MS) was employed to accurately quantify ^209Bi and ^66Zn contents in various purified NDM-1 samples. Purified Zn2-NDM-1 was prepared as described previously and was dissolved in trace-metal-free ICP-MS buffer containing 50 mM HEPES, pH 7.0 through cycles of buffer washing using an Amicon Ultra-15 Centrifugal Filter Devices with 3 kDa cut-off. Zn2-NDM-1 (20 μM) was incubated with various concentrations of CBS at 25° C. for 5 hrs with mild shaking. The samples were subsequently dialyzed in ICP-MS buffer to remove unbound-metal ions and were acidified with 10% (v/v) nitric acid for 1 h with gentle heating for releasing the bound metal ions from the protein for ICP analysis. The samples were then mixed with 115In as an internal standard to reach a final concentration of 10 ppb in 1% HNO3. After calibration with the isotope standards ^209Bi, ^66Zn and ^34S from Sigma, the samples were subsequently injected into a quadrupole-based inductively coupled plasma mass spectrometer (Agilent 7500a, Agilent Technologies, CA, USA). ^209Bi, ^66Zn and ^34S isotopes abundances were determined simultaneously by integration of peak areas using the build-in software from the instrument so that ^34S abundance serves as a way for quantifying protein concentration in each sample.

T1 sequence (C7C422 whole entry, looked up): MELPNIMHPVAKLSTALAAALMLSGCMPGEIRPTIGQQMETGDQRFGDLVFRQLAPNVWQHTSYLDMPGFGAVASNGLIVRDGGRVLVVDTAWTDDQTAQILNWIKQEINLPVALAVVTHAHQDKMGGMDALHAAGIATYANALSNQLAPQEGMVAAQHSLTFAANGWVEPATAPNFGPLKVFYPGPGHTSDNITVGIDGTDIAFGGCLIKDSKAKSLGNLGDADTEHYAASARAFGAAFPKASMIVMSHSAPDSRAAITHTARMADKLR

`O=C([O-])CC([O-])(CC(=O)[O-])C(=O)[O-].O=C([O-])CC([O-])(CC(=O)[O-])C(=O)[O-].[Bi+3].[Bi+3].[K+]` [Complex 10, colloidal bismuth subcitrate]: the mutation frequency in the assay with E. coli cells (NDM+) (MER with CBS at 32, MIC multiple 0.5) is >5.22 × 10^−8; in the assay on E. coli cells (NDM+) (MER with CBS at 32, MIC multiple 1) it was 4.10 × 10^−8; with E. coli cells (NDM+) (MER with CBS at 32, MIC multiple 2) it was 3.28 × 10^−9; in the assay with E. coli cells (NDM+) (MER with CBS at 64, MIC multiple 0.5) it was 1.23 × 10^−8; in the assay with E. coli cells (NDM+) (MER with CBS at 64, MIC multiple 1) it was 1.15 × 10^−9; in the assay with E. coli cells (NDM+) (MER with CBS at 128, MIC multiple 0.5), 9.84 × 10^−10. Further, in the assay with E. coli cells (NDM+) (MER with CBS at 256, MIC multiple 0.5), the mutation frequency is recorded as 1.31 × 10^−9. Further, at NDM-1 [1], the “enzyme activity restored upon supplementation of Zn(II) to Bi-NDM-1” value is given as 25%. Besides, the “MBC of MER with Bi(III) compound” value in the assay with E. coli (VIM-2+) was determined as 1 µg/mL. Further, in the assay with E. coli (VIM-2+), the “MIC of MER with Bi(III) compound” value is 0.5 µg/mL. Also, in assay [2], the “reduction of growth rate of bacterial cells, with CEF” value is 76%. Besides, the values for the IC50 against VIM-2 and against NDM-1 [3] were 44.5 ± 3.94 µM and 5.83 ± 0.53 µM, respectively. The “survival rate at the endpoint of experiment” value with E. coli (NDM-1+) worked out at 50%. Further, the “Bi(III) bound to NDM-1” value on NDM-1 [4] was determined as 0.96 equivalent. Further, the “Zn(II) replaced from NDM-1” value at NDM-1 [4] came to 2.13 molar equivalents.
